Data from patent publication US11987588B2, “Modulators of the beta-3 adrenergic receptor useful for the treatment or prevention of heart failure and disorders related thereto” (Arena Pharmaceuticals, Inc., priority 2017, dated 2024).

Biological target: Beta-3 Adrenergic Receptor (Homo sapiens (Human), UniProt P13945)
Assay: Homogeneous Time-Resolved Fluorescence (HTRF) cAMP antagonist assay, IC50 determination
Assay type: cell-based
Conditions: CHO-K1 cells stably expressing recombinant receptor, isoproterenol at EC90
Summary of the method: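 CHO-K1 cells stably expressing receptor, 1500 cells/well, preincubated briefly with 10-point 5-fold compound series (top final typically 10 or 100 μM) in PBS with 1 mM IBMX, then challenged with isoproterenol at EC90 for 1 h at room temperature. cAMP read by HTRF against on-plate standard curve; IC50 from dose-response.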

Sequence of Beta-3 Adrenergic Receptor (P13945 whole entry, species assumed): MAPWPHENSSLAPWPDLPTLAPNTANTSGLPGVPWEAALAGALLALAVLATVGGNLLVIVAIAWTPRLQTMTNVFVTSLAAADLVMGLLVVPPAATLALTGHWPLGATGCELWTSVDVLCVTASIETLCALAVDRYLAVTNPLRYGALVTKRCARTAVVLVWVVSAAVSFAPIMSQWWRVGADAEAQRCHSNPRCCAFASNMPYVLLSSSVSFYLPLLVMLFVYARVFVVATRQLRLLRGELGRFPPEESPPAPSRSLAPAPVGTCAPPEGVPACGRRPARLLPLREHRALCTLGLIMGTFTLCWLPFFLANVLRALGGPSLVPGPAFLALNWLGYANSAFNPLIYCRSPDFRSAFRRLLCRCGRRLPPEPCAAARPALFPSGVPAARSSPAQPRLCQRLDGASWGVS

| IC50 [nM] | SMILES |
| --- | --- |
| 32.7 | CNS(=O)(=O)c1cccc(OC[C@@H](O)CN[C@H]2COC3(CCN(S(=O)(=O)c4cn(CC(=O)O)c5ccccc5c4=O)CC3)C2)c1 [Compound 544, 2-(3-((R)-3-((S)-2-hydroxy-3-(3-(N-methylsulfamoyl)phenoxy)propylamino)-1-oxa-8-azaspiro[4.5]decan-8-ylsulfonyl)-4-oxoquinolin-1(4H)-yl)acetic acid] |
| 35.1 | CNS(=O)(=O)c1cccc(OC[C@@H](O)CNC2COC3(CCN(S(=O)(=O)c4cc(C#N)ccc4C)CC3)C2)c1 (stereo partly drawn) [Compound 217, 3-((2S)-3-(8-(5-cyano-2-methylphenylsulfonyl)-1-oxa-8-azaspiro[4.5]decan-3-ylamino)-2-hydroxypropoxy)-N-methylbenzenesulfonamide] |
| 16.7 | CNS(=O)(=O)c1cccc(OC[C@@H](O)CN[C@@H]2COC3(CCN(S(=O)(=O)c4ccc(Br)c(C)c4)CC3)C2)c1 [Compound 270, 3-((S)-3-((S)-8-(4-bromo-3-methylphenylsulfonyl)-1-oxa-8-azaspiro[4.5]decan-3-ylamino)-2-hydroxypropoxy)-N-methylbenzenesulfonamide] |
| 27.7 | CNS(=O)(=O)c1cccc(OC[C@@H](O)CN[C@@H]2COC3(CCN(S(=O)(=O)c4ccc5ncccc5c4)CC3)C2)c1 [Compound 343, 3-((S)-2-hydroxy-3-((S)-8-(quinolin-6-ylsulfonyl)-1-oxa-8-azaspiro[4.5]decan-3-ylamino)propoxy)-N-methylbenzenesulfonamide] |
| 27.3 | CNS(=O)(=O)c1cccc(OC[C@@H](O)CNC2COC3(CCN(S(=O)(=O)c4ccc5c(c4)N(C(C)C)CCO5)CC3)C2)c1 (stereo partly drawn) [Compound 334, 3-((2S)-2-hydroxy-3-(8-(4-isopropyl-3,4-dihydro-2H-benzo[b][1,4]oxazin-6-ylsulfonyl)-1-oxa-8-azaspiro[4.5]decan-3-ylamino)propoxy)-N-methylbenzenesulfonamide] |
| 13.6 | Cc1c[nH]c2ncc(S(=O)(=O)N3CCC4(CC3)C[C@@H](NC[C@H](O)COc3cccc(S(N)(=O)=O)c3)CO4)cc12 [Compound 558, 3-((S)-2-hydroxy-3-((R)-8-(3-methyl-1H-pyrrolo[2,3-b]pyridin-5-ylsulfonyl)-1-oxa-8-azaspiro[4.5]decan-3-ylamino)propoxy)benzenesulfonamide] |
| 20.5 | CCOc1ccc(-c2ccc(CNC(C)C)cc2)cc1S(=O)(=O)N1CCC2(CC1)C[C@H](NC[C@H](O)COc1cccc(S(=O)(=O)NC)c1)CO2 [Compound 438, 3-((S)-3-((S)-8-(4-ethoxy-4′-((isopropylamino)methyl)biphenyl-3-ylsulfonyl)-1-oxa-8-azaspiro[4.5]decan-3-ylamino)-2-hydroxypropoxy)-N-methylbenzenesulfonamide] |
| 126 | CNS(=O)(=O)c1cccc(OC[C@@H](O)CNC2COC3(CCN(S(=O)(=O)c4cccc(-c5ccc(CN6CCSC6)cc5)c4)CC3)C2)c1 (stereo partly drawn) [Compound 346, 3-((2S)-2-hydroxy-3-(8-(4′-(thiazolidin-3-ylmethyl)biphenyl-3-ylsulfonyl)-1-oxa-8-azaspiro[4.5]decan-3-ylamino)propoxy)-N-methylbenzenesulfonamide] |
| 12.8 | CNS(=O)(=O)c1cccc(OC[C@@H](O)CNC2COC3(CCN(S(=O)(=O)c4c(Cl)ccc5nsnc45)CC3)C2)c1 (stereo partly drawn) [Compound 197, 3-((2S)-3-(8-(5-chlorobenzo[c][1,2,5]thiadiazol-4-ylsulfonyl)-1-oxa-8-azaspiro[4.5]decan-3-ylamino)-2-hydroxypropoxy)-N-methylbenzenesulfonamide] |
| 24.2 | CN(C)S(=O)(=O)c1cccc(OC[C@@H](O)CNC2COC3(CCN(S(=O)(=O)c4ccc5c(c4)NC(=O)CO5)CC3)C2)c1 (stereo partly drawn) [Compound 250, 3-((2S)-2-hydroxy-3-(8-(3-oxo-3,4-dihydro-2H-benzo[b][1,4]oxazin-6-ylsulfonyl)-1-oxa-8-azaspiro[4.5]decan-3-ylamino)propoxy)-N,N-dimethylbenzenesulfonamide] |
| 203 | CNS(=O)(=O)c1cccc(OC[C@@H](O)CNC2COC3(CCN(S(=O)(=O)c4cn(C)c(C)n4)CC3)C2)c1 (stereo partly drawn) [Compound 119, 3-((2S)-3-(8-(1,2-dimethyl-1H-imidazol-4-ylsulfonyl)-1-oxa-8-azaspiro[4.5]decan-3-ylamino)-2-hydroxypropoxy)-N-methylbenzenesulfonamide] |
| 3370 | CN(C)CCCNS(=O)(=O)c1cccc(OC[C@@H](O)CNC2COC3(CCN(S(=O)(=O)c4cccc(Cl)c4)CC3)C2)c1 (stereo partly drawn) [Compound 307, 3-((2S)-3-(8-(3-chlorophenylsulfonyl)-1-oxa-8-azaspiro[4.5]decan-3-ylamino)-2-hydroxypropoxy)-N-(3-(dimethylamino)propyl)benzenesulfonamide] |
| 20.3 | CNS(=O)(=O)c1cccc(OC[C@@H](O)CNC2COC3(CCN(S(=O)(=O)c4cc(Br)cc5c4OCC5)CC3)C2)c1 (stereo partly drawn) [Compound 260, 3-((2S)-3-(8-(5-bromo-2,3-dihydrobenzofuran-7-ylsulfonyl)-1-oxa-8-azaspiro[4.5]decan-3-ylamino)-2-hydroxypropoxy)-N-methylbenzenesulfonamide] |
| 27.5 | CNS(=O)(=O)c1cccc(OC[C@@H](O)CNC2COC3(CCN(S(=O)(=O)c4ccc(OC)c(-c5ccc(CN)cc5)c4)CC3)C2)c1 (stereo partly drawn) [Compound 366, 3-((2S)-3-(8-(4′-(aminomethyl)-6-methoxybiphenyl-3-ylsulfonyl)-1-oxa-8-azaspiro[4.5]decan-3-ylamino)-2-hydroxypropoxy)-N-methylbenzenesulfonamide] |
| 72.6 | CCNS(=O)(=O)c1cccc(OC[C@@H](O)CNC2COC3(CCN(S(=O)(=O)c4ccc5c(c4)CCCC5)CC3)C2)c1 (stereo partly drawn) [Compound 231, N-ethyl-3-((2S)-2-hydroxy-3-(8-(5,6,7,8-tetrahydronaphthalen-2-ylsulfonyl)-1-oxa-8-azaspiro[4.5]decan-3-ylamino)propoxy)benzenesulfonamide] |
| 42.8 | CNS(=O)(=O)c1cccc(OC[C@@H](O)CNC2COC3(CCN(S(=O)(=O)c4cc(Br)ccc4C)CC3)C2)c1 (stereo partly drawn) [Compound 237, 3-((2S)-3-(8-(5-bromo-2-methylphenylsulfonyl)-1-oxa-8-azaspiro[4.5]decan-3-ylamino)-2-hydroxypropoxy)-N-methylbenzenesulfonamide] |
| 13.4 | CNS(=O)(=O)c1cccc(OC[C@@H](O)CN[C@H]2COC3(CCN(S(=O)(=O)c4cnc5ccccc5c4O)CC3)C2)c1 [Compound 541, 3-((S)-2-hydroxy-3-((R)-8-(4-hydroxyquinolin-3-ylsulfonyl)-1-oxa-8-azaspiro[4.5]decan-3-ylamino)propoxy)-N-methylbenzenesulfonamide] |
| 9.03 | CNS(=O)(=O)c1cccc(OC[C@@H](O)CN[C@H]2COC3(CCN(S(=O)(=O)c4cnc5c(Cl)cn(C)c5c4)CC3)C2)c1 [Compound 527, 3-((S)-3-((R)-8-(3-chloro-1-methyl-1H-pyrrolo[3,2-b]pyridin-6-ylsulfonyl)-1-oxa-8-azaspiro[4.5]decan-3-ylamino)-2-hydroxypropoxy)-N-methylbenzenesulfonamide] |
| 214 | COCCNS(=O)(=O)c1cccc(OC[C@@H](O)CN[C@H]2COC3(CCN(S(=O)(=O)c4cnc5cc[nH]c5c4)CC3)C2)c1 [Compound 530, 3-((S)-3-((R)-8-(1H-pyrrolo[3,2-b]pyridin-6-ylsulfonyl)-1-oxa-8-azaspiro[4.5]decan-3-ylamino)-2-hydroxypropoxy)-N-(2-methoxyethyl)benzenesulfonamide] |
| 40.5 | CNS(=O)(=O)c1cccc(OC[C@@H](O)CNC2COC3(CCN(S(=O)(=O)c4ccc(-c5ccccc5)cc4)CC3)C2)c1 (stereo partly drawn) [Compound 123, 3-((2S)-3-(8-(biphenyl-4-ylsulfonyl)-1-oxa-8-azaspiro[4.5]decan-3-ylamino)-2-hydroxypropoxy)-N-methylbenzenesulfonamide] |
| 41.5 | CNS(=O)(=O)c1cccc(OC[C@@H](O)CN[C@H]2COC3(CCN(S(=O)(=O)c4cnc5nc(C)[nH]c5c4)CC3)C2)c1 [Compound 486, 3-((S)-2-hydroxy-3-((R)-8-(2-methyl-1H-imidazo[4,5-b]pyridin-6-ylsulfonyl)-1-oxa-8-azaspiro[4.5]decan-3-ylamino)propoxy)-N-methylbenzenesulfonamide] |
| 19.4 | CNS(=O)(=O)c1cccc(OC[C@@H](O)CNC2COC3(CCN(S(=O)(=O)c4ccc(C(F)(F)F)cc4)CC3)C2)c1 (stereo partly drawn) [Compound 45, 3-((2S)-2-hydroxy-3-(8-(4-(trifluoromethyl)phenylsulfonyl)-1-oxa-8-azaspiro[4.5]decan-3-ylamino)propoxy)-N-methylbenzenesulfonamide] |
| 100000 | CNS(=O)(=O)c1cccc(OC[C@@H](O)CN[C@H]2COC3(CCN(c4nccc(C(=O)O)n4)CC3)C2)c1 [Compound 582, 2-((R)-3-((S)-2-hydroxy-3-(3-(N-methylsulfamoyl)phenoxy)propylamino)-1-oxa-8-azaspiro[4.5]decan-8-yl)pyrimidine-4-carboxylic acid] |
| 67.9 | CNS(=O)(=O)c1cccc(OC[C@@H](O)CNC2COC3(CCN(S(=O)(=O)c4ccc5c(c4)N(CC(C)C)CCO5)CC3)C2)c1 (stereo partly drawn) [Compound 349, 3-((2S)-2-hydroxy-3-(8-(4-isobutyl-3,4-dihydro-2H-benzo[b][1,4]oxazin-6-ylsulfonyl)-1-oxa-8-azaspiro[4.5]decan-3-ylamino)propoxy)-N-methylbenzenesulfonamide] |
| 107 | CNS(=O)(=O)c1cccc(OC[C@@H](O)CN[C@H]2COC3(CCN(S(=O)(=O)c4cnc5c(c4)N(CCOCc4ccccc4)CCO5)CC3)C2)c1 [Compound 462, 3-((S)-3-((R)-8-(1-(2-(benzyloxy)ethyl)-2,3-dihydro-1H-pyrido[2,3-b][1,4]oxazin-7-ylsulfonyl)-1-oxa-8-azaspiro[4.5]decan-3-ylamino)-2-hydroxypropoxy)-N-methylbenzenesulfonamide] |
